Measurements: paper PMC9605737, “Identification of 6ω-cyclohexyl-2-(phenylamino carbonylmethylthio)pyrimidin-4(3H)-ones targeting the ZIKV NS5 RNA dependent RNA polymerase” (Frontiers in Chemistry, 2022)

System: ZIKV E protein
Assay: Western blot of ZIKV E protein in infected Vero cells
Format: cell-based, Zika virus
Conditions: 12.5 μM, 48 h
Text: ZIKV E protein is one of the most important structural proteins of ZIKV, which plays an important role in the correct assembly of the virus and evasion of the host’s innate immunity ([Jaimipuk et al., 2022]). We have verified that 4w has a significant inhibitory effect on ZIKV-infected cell lines from different sources at the molecular level, but it is unknown whether it has the same antiviral effect at the protein level. Therefore, in order to explore the inhibitory effect of 4w on ZIKV protein level, we added serially diluted 4w to ZIKV-infected Vero cells for 48 h, collected the total protein for WB experiments, and then detected the effect of 4w on ZIKV E and NS5 protein. At the same time, the inhibitory effect of 4w on ZIKV E protein was verified again by immunofluorescence experiment.
Vero cells were infected with ZIKV (MOI = 1) at 37°C for 2 h. Next, the different amounts of 4w were added to continue culturing for 48 h to extract the total protein in the cells. The total protein was separated in sodium dodecyl sulfate polyacrylamide gel electrophoresis (SDS-PAGE). […] The antibody signal was recorded and quantified using the Tanon-5200 Multi Imaging System.

CCc1c(C2CCCCC2)nc(SCC(=O)Nc2cc(F)cc(F)c2)[nH]c1=O [Compound 4w, 2-{[4-cyclohexyl-5-ethyl-6-oxo-1,6-dihydropyrimidin-2-yl]thio}-N-(3,5-difluorophenyl)acetamide]
inhibition of ZIKV E protein expression (WB): significantly inhibit
